What was measured:
CF epithelia = assay: Liquid absorption by airway epithelia; format: cell-based, human; details: 60 μl saline/xylitol mixtures apical, 4 hours, increasing xylitol concentration
Procedure: (§1) FIG. 2. Effect of apical xylitol on rate of liquid absorption by non-CF and CF epithelia. Sixty μl of saline solution, xylitol solution, or indicated mixtures of the two were applied to the apical surface. Four hours later the solution was removed to measure rate of liquid absorption. A short incubation period was chosen to avoid secondary changes in the epithelium due to the large volume of apical liquid. Data are mean±SEM; n=15 from 3 different experiments. Some SEM bars are hidden by symbols.
(§2) Airway epithelial cells were isolated from tracheal and bronchial tissue. […] All epithelia were evaluated with scanning electron microscopy for the development of a ciliated apical surface.
(§3) Liquid absorption was measured using methods similar to those previously described (Smith, J. J., P. H. Karp, and M. J. Welsh. 1994. Defective fluid transport by cystic fibrosis airway epithelia. J. Clin. Invest. 93:1307-1311). […] After incubation for 4 hours, apical solutions were collected under mineral oil and their volume measured as previously described (Zabner, J., J. J. Smith, P. H. Karp, J. H. Widdicombe, and M. J. Welsh. 1998. Loss of CFTR chloride channels alters salt absorption by cystic fibrosis airway epithelia in vitro. Mol. Cell. 2:397-403; Smith, J. J., P. H. Karp, and M. J. Welsh. 1994. Defective fluid transport by cystic fibrosis airway epithelia. J. Clin. Invest. 93:1307-1311). […]

non-CF epithelia = assay: Liquid absorption by airway epithelia; format: cell-based, human; details: 60 μl saline/xylitol mixtures apical, 4 hours, increasing xylitol concentration
Procedure: as §1, §2, §3

S. aureus [1] = assay: Growth in carbon-starved M9 media (O.D.); format: cell-based; details: M9 media supplemented at 100 mM
Procedure: (§4) FIGS. 5(A-G). Effect of xylitol on growth of different airway pathogens. A, B and C. Growth of P. aeruginosa (A), S. aureus, (B), and coagulase-negative Staphylococcus (C) were measured as O. D. M9 media alone is indicated by open triangle. Xylitol (closed circle), or succinate, mannitol, or sucrose (open circles), were added to M9 media at 100 mM as indicated. D. Nasal swabs were collected and cultured for 3 days in Lauria-Bertani media (open circles), in minimal M9 media (open squares), or in M9 media supplemented with 100 mM xylitol (closed circles). E, F and G. P. aeruginosa (E), S. aureus (F), and coagulase-negative Staphylococcus (G) were cultured in Lauria-Bertani media alone (open triangles), Lauria-Bertani media with 100 mM xylitol (closed circles), and Lauria-Bertani media containing tobramycin or levofloxacin (open circles).
To test the effect of xylitol on growth of different airway pathogens in a carbon-starved media, P. aeruginosa, S. aureus, and coagulase-negative Staphylococcus were grown overnight in Lauria-Bertani medium. The bacteria were then centrifuged and resuspended in M9 media containing either 100 mM succinate, mannitol, or sucrose, respectively, and grown overnight at 37° C. […] The optical density (O.D.) was measured after 0, 1, 2, and 4 hours at 600 nm on a Beckman DU640 Spectrophotometer (Schaumburg, Ill.). […]

S. aureus [2] = assay: Antibiotic effect in Lauria-Bertani (rich) media; format: cell-based; details: Lauria-Bertani media with 100 mM xylitol
Procedure: as §4
(§5) To test the effect of xylitol on growth of different airway pathogens in a carbon-starved media, P. aeruginosa, S. aureus, and coagulase-negative Staphylococcus were grown overnight in Lauria-Bertani medium. The bacteria were then centrifuged and resuspended in M9 media containing either 100 mM succinate, mannitol, or sucrose, respectively, and grown overnight at 37° C. The bacteria were centrifuged and resuspended in M9 media alone. M9 media containing 100 mM xylitol, or 100 mM of the indicated metabolizable sugar, as positive control. The optical density (O.D.) was measured after 0, 1, 2, and 4 hours at 600 nm on a Beckman DU640 Spectrophotometer (Schaumburg, Ill.). To test the antibiotic effect of xylitol, P. aeruginosa, S. aureus, and coagulase-negative Staphylococcus were grown overnight in Lauria-Bertani medium. The bacteria were then centrifuged and resuspended in Lauria-Bertani media with and without 100 mM xylitol. As a positive control, antibiotics with specific activity to each of the bacteria were added to the media (40 μg/ml tobramycin or 40 μg/ml levofloxacin).

[3] = tested on: coagulase-negative Staphylococcus; assay: Antibiotic effect in Lauria-Bertani (rich) media; format: cell-based; details: Lauria-Bertani media with 100 mM xylitol
Procedure: as §4, §5

P. aeruginosa = assay: Antibiotic effect in Lauria-Bertani (rich) media; format: cell-based; details: Lauria-Bertani media with 100 mM xylitol
Procedure: as §4, §5

[4] = tested on: coagulase-negative Staphylococcus
Excerpt: Effect of xylitol administration to nasal mucosa on coagulase-negative Staphylococcus.
Subjects were over 18 years old. […] Twenty-one normal healthy subjects (10 male and 11 female, age 20 to 52 years) participated.
The design was a double-blind, randomized, cross-over study. Subjects were randomized to one of two groups: xylitol followed by saline or saline followed by xylitol. A culture of both anterior nares was obtained on day zero. Then subjects sprayed each nostril with a prefilled syringe of solution 4 times per day for 4 days. On the morning of day 5, subjects did their final application at breakfast time, then a nasal swab was obtained 2 hours later. No treatment was administered for the next 7 days. Subjects then repeated the protocol with the opposite solution. The saline solution was 0.9% NaCl in water (Baxter Health Care Corp., Deerfield, Ill.). The xylitol solution was 5% xylitol (304 mM) in water. The solutions were nebulized using an Accuspray syringe (Becton Dickinson Pharmaceutical Systems, Franklin Lakes, N.J.), containing 250 μl of solution. The xylitol and saline syringes were identical. The mass medium diameter of particles was ˜60 μm. It was impossible to disguise the sweet taste of xylitol.
Samples for cultures were obtained with sterile rayon swabs (Culturette Collection and Transport System, Becton Dickinson Microbiology Systems, Sparks, Md.). […] The plates were incubated at 37° C. for 24 hours and the colonies of coagulase-negative Staphylococcus colonies were identified and counted using a Cling-On Grid (Spiral Biotech, Bethesda, Md.). […]
A randomized, double-blind, cross-over study was performed. The nasal mucosa was swabbed and the number of coagulase-negative Staphylococcus was determined by culture. […] After 4 days, the number of nasal coagulase-negative Staphylococcus was counted again. […]
Analysis of variance for a cross-over design was applied on the change in bacterial count from pretreatment to post treatment. […] Thus, the comparison of xylitol vs. saline was evaluated from the data of both nostrils and both sequences.

OC[C@@H](O)[C@H](O)[C@@H](O)CO [xylitol]
rate of liquid absorption (CF epithelia): reduced the rate of liquid absorption
rate of liquid absorption (non-CF epithelia): reduced the rate of liquid absorption
growth of S. aureus (S. aureus [1]): failed to support growth
inhibition of growth of S. aureus (S. aureus [2]): did not inhibit the growth
inhibition of growth of coagulase-negative Staphylococcus [3]: did not inhibit the growth
inhibition of growth of P. aeruginosa (P. aeruginosa): did not inhibit the growth
adverse effects reported by subjects ([4]; in vivo): none of the subjects tested reported adverse effects
median change in coagulase-negative Staphylococcus count ([4]; normal subjects, nasal spray 4 times a day for 4 days, interquartile range in brackets): 500 (interquartile range of 1152 to 120) cfu
average reduction of coagulase-negative Staphylococcus in treated nostrils ([4]; normal subjects, nasal spray 250 μl per nostril 4 times a day for 4 days, p=0.05 vs saline): 597±242 cfu

From patent US6716819B2, “Use of xylitol to reduce ionic strength and activate endogenous antimicrobials for prevention and treatment of infections” (University of Iowa Research Foundation, priority 2000, dated 2004)
